Assay [1] concerns K562. Kind of assay: Antiproliferative activity against human K562 cells incubated for 48 hrs by MTT assay. In kind it is functional, cell-based. Conditions: K562, 48 h. In general terms: Formazan colour is commonly taken as a measure of viable cells.
Assay [2] addresses T1, DNA (cytosine-5)-methyltransferase 1 (Homo sapiens, UniProt P26358). The assay is described as follows: Inhibition of DNMT1 (unknown origin) at 500 uM relative to control.
For assay [3], the target named is T1, DNA (cytosine-5)-methyltransferase 1. The assay is described as follows: Binding affinity to human DNMT1 expressed in Escherichia coli assessed as equilibrium dissociation constant by SPR analysis. Background: In SPR one partner is held on a chip, and binding of the other changes the refractive index at the surface.
The next assay relates to A2780. The assay is described as follows: Antiproliferative activity against human A2780 cells incubated for 48 hrs by MTT assay. In kind it is functional, cell-based. Conditions: A2780, 48 h.
A further assay has as its system SiHa. The assay is described as follows: Antiproliferative activity against human SiHa cells incubated for 48 hrs by MTT assay. The class given is functional, cell-based.
Assay [4] has as its target T1, DNA (cytosine-5)-methyltransferase 1. The assay is described as follows: Inhibition of DNMT1 (unknown origin) at 250 uM relative to control.
For assay [5] the target is unchanged. The assay is described as follows: Binding affinity to human DNMT1 expressed in Escherichia coli assessed as response unit at 10 uM by SPR analysis.
The subject of a further assay is HeLa. Kind of assay: Antiproliferative activity against human HeLa cells incubated for 48 hrs by MTT assay. In kind it is functional, cell-based.
Assay [6] deals with T1, DNA (cytosine-5)-methyltransferase 1. The assay is described as follows: Binding affinity to human DNMT1 expressed in Escherichia coli by SPR analysis.
Assay [7] is described as follows: Inhibition of recombinant human DNA methyltransferase using DNA as substrate incubated for 2 hrs by agarose gel assay.
The test system of assay [8] is K562. Kind of assay: Induction of apoptosis in human K562 cells assessed as early apoptotic cells at 20 uM incubated for 48 hrs by Annexin-V/PI staining based flow cytometry assay (reference value: 3.18%). In kind it is functional. For orientation: In flow cytometry, cells or beads pass a laser one at a time.
For assay [9], the system named is K562. Kind of assay: Induction of cell cycle arrest in human K562 cells assessed as G2/M phase cells at 20 uM incubated for 48 hrs by PI staining based flow cytometry assay (reference value: 37.35 to 45.32%). In kind it is functional.
Assay [10] has as its system K562. Kind of assay: Induction of apoptosis in human K562 cells assessed as late apoptotic cells at 40 uM incubated for 48 hrs by Annexin-V/PI staining based flow cytometry assay (reference value: 3.73%). The class given is functional.
For assay [11], the system named is K562. The assay is described as follows: Induction of apoptosis in human K562 cells assessed as necrotic cells at 20 uM incubated for 48 hrs by Annexin-V/PI staining based flow cytometry assay (reference value: 0.34%). The class given is functional.
Assay [12] deals with K562. The assay is described as follows: Induction of apoptosis in human K562 cells assessed as viable cells at 20 uM incubated for 48 hrs by Annexin-V/PI staining based flow cytometry assay (reference value: 92.12%). The note with it: read-out: Activity. In kind it is functional.
The test system of assay [13] is K562. Kind of assay: Upregulation of CDKN1A/P21 expression in human K562 cells. The class given is functional, cell-based.
For assay [14], the system named is K562. Kind of assay: Induction of apoptosis in human K562 cells assessed as late apoptotic cells at 60 uM incubated for 48 hrs by Annexin-V/PI staining based flow cytometry assay (reference value: 3.73%). In kind it is functional.
Assay [15] deals with K562. The assay is described as follows: Induction of cell cycle arrest in human K562 cells assessed as G2/M phase cells at 40 uM incubated for 48 hrs by PI staining based flow cytometry assay (reference value: 37.35 to 45.32%). In kind it is functional.
The subject of assay [16] is K562. Kind of assay: Induction of cell cycle arrest in human K562 cells assessed as S phase cells at 40 uM incubated for 48 hrs by PI staining based flow cytometry assay (reference value: 24.10 to 26.83%). In kind it is functional.
The subject of assay [17] is K562. Kind of assay: Induction of apoptosis in human K562 cells assessed as late apoptotic cells at 20 uM incubated for 48 hrs by Annexin-V/PI staining based flow cytometry assay (reference value: 3.73%). In kind it is functional.
Assay [18] relates to K562. The assay is described as follows: Induction of apoptosis in human K562 cells assessed as early apoptotic cells at 60 uM incubated for 48 hrs by Annexin-V/PI staining based flow cytometry assay (reference value: 3.18%). In kind it is functional.
Assay [19] deals with K562. The assay is described as follows: Upregulation of TRAIL-R2/Dr5 expression in human K562 cells. In kind it is functional, cell-based.
Assay [20] deals with K562. The assay is described as follows: Induction of apoptosis in human K562 cells assessed as necrotic cells at 60 uM incubated for 48 hrs by Annexin-V/PI staining based flow cytometry assay (reference value: 0.34%). The class given is functional.
The test system of assay [21] is K562. The assay is described as follows: Induction of cell cycle arrest in human K562 cells assessed as G0-G1 phase cells at 60 uM incubated for 48 hrs by PI staining based flow cytometry assay (reference value: 33.58 to 35.82%). The class given is functional.
For assay [22], the system named is K562. Kind of assay: Induction of apoptosis in human K562 cells assessed as early apoptotic cells at 40 uM incubated for 48 hrs by Annexin-V/PI staining based flow cytometry assay (reference value: 3.18%). The class given is functional.
The test system of assay [23] is K562. The assay is described as follows: Induction of apoptosis in human K562 cells assessed as necrotic cells at 40 uM incubated for 48 hrs by Annexin-V/PI staining based flow cytometry assay (reference value: 0.34%). In kind it is functional.
In assay [24] the test system is K562. The assay is described as follows: Induction of cell cycle arrest in human K562 cells assessed as G0-G1 phase cells at 20 uM incubated for 48 hrs by PI staining based flow cytometry assay (reference value: 33.58 to 35.82%). The class given is functional.
The subject of assay [25] is K562. Kind of assay: Induction of cell cycle arrest in human K562 cells assessed as S phase cells at 60 uM incubated for 48 hrs by PI staining based flow cytometry assay (reference value: 24.10 to 26.83%). In kind it is functional.
The subject of assay [26] is K562. Kind of assay: Induction of apoptosis in human K562 cells assessed as viable cells at 60 uM incubated for 48 hrs by Annexin-V/PI staining based flow cytometry assay (reference value: 92.12%). In kind it is functional. The note with it: read-out: Activity.
Assay [27] has as its system K562. Kind of assay: Induction of cell cycle arrest in human K562 cells assessed as G2/M phase cells at 60 uM incubated for 48 hrs by PI staining based flow cytometry assay (reference value: 37.35 to 45.32%). The class given is functional.
Assay [28] deals with K562. The assay is described as follows: Induction of apoptosis in human K562 cells assessed as viable cells at 40 uM incubated for 48 hrs by Annexin-V/PI staining based flow cytometry assay (reference value: 92.12%). The note with it: read-out: Activity. The class given is functional.
Assay [29] relates to K562. Kind of assay: Induction of cell cycle arrest in human K562 cells assessed as G0-G1 phase cells at 40 uM incubated for 48 hrs by PI staining based flow cytometry assay (reference value: 33.58 to 35.82%). The class given is functional.
The target of assay [30] is T1, DNA (cytosine-5)-methyltransferase 1. The assay is described as follows: Inhibition of DNMT1 (unknown origin) using semi-methylated DNA substrate preincubated for 15 mins followed by substrate and [3H-SAM] addition and measured after 60 mins by microbeta scintillation counting assay.
The subject of assay [31] is K562. The assay is described as follows: Induction of cell cycle arrest in human K562 cells assessed as S phase cells at 20 uM incubated for 48 hrs by PI staining based flow cytometry assay (reference value: 24.10 to 26.83%). In kind it is functional.
Assay [32] relates to K562. The assay is described as follows: Upregulation of TNFR-1 expression in human K562 cells. The class given is functional, cell-based.

The structures appear in SMILES notation. Active and inactive are the calls of the source. No cut-off for these calls is given here.

Here are results for two molecules from ChEMBL document CHEMBL5579818, “Identification of 3-(9H-carbazol-9-yl)-2-(1,3-dioxoisoindolin-2-yl)propanoic acids as promising DNMT1 inhibitors” (Eur J Med Chem, 2024).

T1 sequence (P26358 whole entry): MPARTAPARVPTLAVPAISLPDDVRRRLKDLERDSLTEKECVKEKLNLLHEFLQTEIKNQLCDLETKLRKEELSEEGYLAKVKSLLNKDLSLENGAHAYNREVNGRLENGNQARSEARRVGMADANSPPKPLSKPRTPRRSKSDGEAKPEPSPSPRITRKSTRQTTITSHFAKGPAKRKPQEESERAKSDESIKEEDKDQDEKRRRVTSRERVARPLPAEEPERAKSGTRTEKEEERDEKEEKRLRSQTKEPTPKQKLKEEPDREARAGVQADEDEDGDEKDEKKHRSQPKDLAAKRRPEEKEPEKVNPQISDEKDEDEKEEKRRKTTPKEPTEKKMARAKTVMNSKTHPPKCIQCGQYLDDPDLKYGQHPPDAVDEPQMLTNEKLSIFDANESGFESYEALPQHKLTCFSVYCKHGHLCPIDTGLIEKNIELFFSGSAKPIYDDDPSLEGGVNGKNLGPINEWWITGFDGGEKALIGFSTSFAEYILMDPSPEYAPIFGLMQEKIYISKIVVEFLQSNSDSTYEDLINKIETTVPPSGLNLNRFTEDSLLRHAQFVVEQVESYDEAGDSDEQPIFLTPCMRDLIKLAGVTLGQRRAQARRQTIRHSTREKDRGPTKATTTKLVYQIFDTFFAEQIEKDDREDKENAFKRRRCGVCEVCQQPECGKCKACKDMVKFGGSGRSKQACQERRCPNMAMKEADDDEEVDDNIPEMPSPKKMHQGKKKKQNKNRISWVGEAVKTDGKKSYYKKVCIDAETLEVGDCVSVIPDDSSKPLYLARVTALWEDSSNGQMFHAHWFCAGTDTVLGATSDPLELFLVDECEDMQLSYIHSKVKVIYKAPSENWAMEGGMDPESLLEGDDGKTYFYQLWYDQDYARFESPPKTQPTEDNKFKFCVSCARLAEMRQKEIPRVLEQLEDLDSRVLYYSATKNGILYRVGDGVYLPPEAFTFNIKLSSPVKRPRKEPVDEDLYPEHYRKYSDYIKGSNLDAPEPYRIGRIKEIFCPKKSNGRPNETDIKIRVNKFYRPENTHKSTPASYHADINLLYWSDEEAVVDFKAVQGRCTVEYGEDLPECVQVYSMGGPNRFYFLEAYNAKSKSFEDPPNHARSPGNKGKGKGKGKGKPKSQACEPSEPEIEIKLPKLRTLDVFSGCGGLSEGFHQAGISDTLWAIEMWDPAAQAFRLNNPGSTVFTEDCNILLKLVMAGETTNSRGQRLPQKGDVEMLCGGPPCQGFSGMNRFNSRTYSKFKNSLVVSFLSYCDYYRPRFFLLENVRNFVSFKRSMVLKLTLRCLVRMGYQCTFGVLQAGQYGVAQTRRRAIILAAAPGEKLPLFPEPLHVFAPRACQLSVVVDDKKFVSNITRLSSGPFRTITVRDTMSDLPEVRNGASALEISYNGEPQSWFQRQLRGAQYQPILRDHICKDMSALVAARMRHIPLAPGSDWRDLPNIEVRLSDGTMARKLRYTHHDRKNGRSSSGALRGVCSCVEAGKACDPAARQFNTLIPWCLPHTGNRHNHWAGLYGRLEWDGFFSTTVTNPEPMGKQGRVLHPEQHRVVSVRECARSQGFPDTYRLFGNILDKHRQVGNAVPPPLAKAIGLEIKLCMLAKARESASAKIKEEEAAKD

Turning to `O=C(O)[C@H](Cc1c[nH]c2ccccc12)N1C(=O)c2ccccc2C1=O`, the IC50 (as a rule, the concentration that gives 50% inhibition) was > 200 µM in the assay with K562 [1]; > 200 µM in the assay with A2780; > 200 µM in the assay with SiHa; > 200 µM with HeLa; 0.115 µM in assay [7]. The inhibition in [2] and in assay [4] was < 5% in each case. In addition, the Kd in assay [3] and in assay [6] was 94.6 µM in each case. The Activity in assay [5] was found to be 2.2 RU.

As to `O=C(O)[C@H](Cn1c2ccc(Cl)cc2c2cc(Cl)cc(Cl)c21)N1C(=O)c2ccccc2C1=O`, the Activity with K562 [8] was 3.9%; in the assay on K562 [9], 33%; in the assay on K562 [10] it was 4.25%; in the assay on K562 [11] it was 0.04%; in the assay on K562 [14], 27.24%; in the assay on K562 [15], 27.43%. In addition, the Activity in the assay with K562 [16] is on record as 21.62%; in the assay with K562 [17], 3.16%; with K562 [18] it was 4.28%; in the assay with K562 [20], 1.74%; with K562 [21], 61.74%; with K562 [22], 1.75%. In addition, the Activity with K562 [23] was 0.29%; in the assay with K562 [24] it was 35.18%; in the assay with K562 [25] it was 17.4%; with K562 [27], 20.78%; in the assay with K562 [29], 50.95%; in the assay with K562 [31] it was 24.1%. The IC50 was 43.9 µM in the assay on K562 [1]; 78.9 µM in the assay on A2780; 58.6 µM in the assay with SiHa; 40 µM in [30]; 96.8 µM with HeLa. For the same molecule, the viability at 20 µM in the assay with K562 [12] is 92.9%. In addition, the result in the assay on K562 [13], in the assay on K562 [19] and with K562 [32] was Active. Further, the Kd – broadly, the concentration at which binding is half-saturated – in [3] was 0.183 µM. The viability at 60 µM in the assay on K562 [26] was 16.7%. Besides, in the assay with K562 [28], the viability at 40 µM was 93.7%.
